This note sets out measurements from patent publication US20210198201A1, “Orally Active Melanocortin Receptor-4 Compounds” (Palatin Technologies, Inc., priority 2018, published 2021).

One data set deals with T1, mMC1r (Mus musculus, UniProt Q01727).
T1 construct: endogenous in cells; host or cells: B16-F1
The experiment in a line: Binding of iodine-125 labeled NDP-α-MSH, B16-F1 cells, mMC1r. As for the experimental part:
(§1) Melanocortin receptor binding and function of Compound 7.1 was tested. Ki binding values (nM) were calculated utilizing the percent inhibit of the binding of iodine-125 labeled NDP-α-MSH against B16-F1 cells for mMC1r, and human recombinant CHO cells for hMC3r, hMC4r and hMC5r, with the inhibition constant calculated using the Cheng Prusoff equation. Functional results (EC50 and efficacy) were calculated utilizing cAMP assays with NDP-α-MSH for mMC1r, hMC3r and hMC4r, ACTH for hMC2r, and α-MSH for hMC5r for agonist measures, with the same target cells for melanocortin receptors mMC1r, hMC3r, hMC4r and hMC5r, and human recombinant Cloudman M3 cells for hMC2r.

Data set [1] has as its target T2, hMC3r (Homo sapiens, UniProt P41968).
T2 construct: expressed in transfected cells; host or cells: CHO
Nature of the data set: Binding of iodine-125 labeled NDP-α-MSH, human recombinant CHO cells, hMC3r. As for the experimental part:
as §1

A further data set has as its target T3, hMC5r (Homo sapiens, UniProt P33032).
T3 construct: expressed in transfected cells; host or cells: CHO
Nature of the data set: Binding of iodine-125 labeled NDP-α-MSH, human recombinant CHO cells, hMC5r. As for the experimental part: as §1

Another data set deals with T4, hMC2r (Homo sapiens, UniProt Q01718).
T4 construct: expressed in transfected cells; host or cells: Cloudman M3
T4 sequence (Q01718 whole entry): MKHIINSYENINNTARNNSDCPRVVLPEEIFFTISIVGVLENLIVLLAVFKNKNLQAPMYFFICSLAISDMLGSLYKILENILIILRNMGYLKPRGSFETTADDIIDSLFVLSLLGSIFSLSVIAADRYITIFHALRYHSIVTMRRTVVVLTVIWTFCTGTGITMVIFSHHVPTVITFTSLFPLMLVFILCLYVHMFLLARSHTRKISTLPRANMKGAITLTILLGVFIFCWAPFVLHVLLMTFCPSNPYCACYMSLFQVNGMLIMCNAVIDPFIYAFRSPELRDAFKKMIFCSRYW
T4 sequence (Q9D159 whole entry partner): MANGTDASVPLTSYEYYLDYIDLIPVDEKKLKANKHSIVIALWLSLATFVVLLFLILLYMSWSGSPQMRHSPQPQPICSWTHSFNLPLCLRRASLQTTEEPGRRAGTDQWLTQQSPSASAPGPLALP
The experiment in a line: cAMP assay hMC2r (human recombinant Cloudman M3 cells, ACTH reference). It is filed as cell-based. As for the experimental part: as §1
Background: Changes in cAMP serve as a functional read-out for many G protein-coupled receptors.

Data set [2] addresses T2, hMC3r. The experiment in a line: cAMP assay hMC3r (human recombinant CHO cells, NDP-α-MSH reference). It is filed as cell-based. As for the experimental part:
as §1

In another data set the test system is C57BL/6 male DIO mice. Nature of the data set: Body weight and food intake in vivo study in diet induced obese mice. Also on record: species or system mouse. As for the experimental part: Compound 7.1 was assessed in a body weight and food intake in vivo study in diet induced obese […] mice. C57BL/6 male DIO mice were utilized, that were 17 weeks of age on arrival. Animals were pre-conditioned on a high-fat diet for 11 weeks by Jackson Labs. […] Animals were single housed within a limited access rodent facility, and provided ad libitum with a commercial rodent diet and free access to drinking water. Animals were randomized into five groups, a vehicle group, three dose levels of compound 7.1 (3 mg/kg, 10 mg/kg and 30 mg/kg), and Peptide A, a positive control cyclic peptide of the formula Ac-Arg-cyclo(Orn-Asn-D-Phe-Arg-Trp-Glu)-NH2. Following three days of sham dosing, animals were dosed for three days, with vehicle or Compound 7.1 dosed orally once daily at within one hour of lights out in the AM, and Peptide A dosed by subcutaneous injection twice daily within one hour before lights out and six hours after lights out. Body weights were measured one hour prior to lights out, and feed weights were measured both one hour prior to lights out and six hours post lights out.
*p<0.05 vs. sham (vehicle control) using two-way ANOVA followed by Dunnett's post-test.
**p<0.01 vs sham (vehicle control) using two-way ANOVA followed by Dunnett's post-test.

A short description of data set [3]: Plasma concentrations following oral administration in Sprague-Dawley rats. It is filed as in vivo, rat. The conditions noted are these: oral 30 mg/kg. As for the experimental part: Plasma samples were measured at 15 minutes (2 animals) and 30 minutes, 1 hour, 2 hours, 4 hours, 8 hours and 24 hours (3 animals) post oral administration.
Data set [4] deals with Male mice homozygous for the obese spontaneous mutation, Lep^ob. Nature of the data set: Oral administration in leptin-deficient obese mice, body weight. It is filed as in vivo, mouse. The note with it: 30 mg/kg twice daily for six days. As for the experimental part:
Male mice homozygous for the obese spontaneous mutation, Lep^ob, with resulting leptin protein deficiency, were individually housed with free access to feed and drinking water. All animals were sham-dosed twice daily for five days prior to initial drug administration, utilizing a vehicle dose of 3.2% mannitol and […] tris(hydroxymethyl)aminomethane at pH 7.4. On day 6 a cohort of the mice received compound 7.1 dissolved into the vehicle twice daily for six consecutive days at a dose of 30 mg/kg. Body weight of animals was measured daily, with data analyzed as the percent change from baseline of each individual animal, where baseline was defined as the average weight during the first three days of sham dosing. The averaged percent change from baseline of a vehicle group was then subtracted from each value to correct for continued weight gain or other study-wide factors. The change in body weight is shown in FIG. 3 starting on study day 1, the first day of administration of compound 7.1.

The subject of a further data set is C57Bl/6 DIO mice. Nature of the data set: Oral administration, feed intake and body weight in C57Bl/6 DIO mice (comparison with MC4r knockout). The format is in vivo, mouse. As for the experimental part:
Feed intake and body weight was evaluated in MCr4 knockout (MC4r−/−) mice (Jackson Laboratories) compared to C57Bl/6 DIO mice. […] Feed weights were taken at time 0, 2, 6 and 24 hours post lights out. […] The change in body weight is shown in FIG. 4 starting on study day 5, the first day of administration of compound 7.1. […] Additionally, there was a statistically significant mean difference, 2.8%, 95% Cl (1.281, 4.253), and p value <0.0001 between DIO mice receiving compound 7.1 and MC4r (−/−) receiving compound 7.1.

Another data set deals with MC4r (Homo sapiens, UniProt P32245). The experiment in a line: Competitive inhibition binding assay, MC4r. Further details: expressed in transfected cells; host or cells: HEK-293 (membrane homogenates). The conditions noted are these: binding studies. As for the experimental part:
A competitive inhibition binding assay is performed using membrane homogenates prepared from HEK-293 cells that express recombinant hMC1ra, hMC4r, hMC3r, or hMC5r, and from B16-F10 mouse melanoma cells (containing endogenous MC1r). In the examples that follow, all values are for human recombinant receptors unless otherwise noted. Assays are performed in 96 well GF/B Millipore multiscreen filtration plates (MAFB NOB10) pre-coated with 0.5% bovine serum albumin (Fraction V). […] After incubation for 60 to 90 minutes at 37° C., the assay mixture is filtered and the membranes washed three times with ice-cold buffer. Filters are dried and counted in a gamma counter for bound radioactivity.
Maximal specific binding (100%) is defined as the difference in radioactivity (cpm) bound to cell membranes in the absence and presence of 1 μM NDP-α-MSH. […] Each assay is conducted in duplicate or triplicate and the actual mean values are described, with results less than 0% reported as 0%. Ki values for test compounds are determined using Graph-Pad Prism® curve-fitting software.
Competitive Binding Assay Using Eu-NDP-α-MSH. Alternatively, a competitive inhibition binding assay is performed employing Eu-NDP-α-MSH (PerkinElmer Life Sciences catalog No. AD0225) with determination by time-resolved fluorometry (TRF) of the lanthanide chelate. […] After incubation for 90 minutes at 37° C., the reaction was stopped by filtration over Acro Well 96-well filter plates (Pall Life Sciences). The filter plates were washed 4 times with 200 μL of ice-cold phosphate-buffered saline. DELFIA Enhancement solution (PerkinElmer Life Sciences) was added to each well. The plates were incubated on a shaker for 15 minutes and read at 340 nm excitation and 615 nm emission wavelengths. Each assay was conducted in duplicate and mean values were utilized. Ki values were determined by curve-fitting with Graph-Pad Prism® software using a one-site fixed-slope competition binding model.

What is called Ki is a measure of affinity in units of concentration, obtained from inhibition or displacement. The EC50 is the midpoint of the concentration-response curve. In general, Cmax refers to the highest concentration seen after dosing. As usually defined, the half-life is the time in which the quantity being followed falls by half.

T2 sequence (P41968 whole entry): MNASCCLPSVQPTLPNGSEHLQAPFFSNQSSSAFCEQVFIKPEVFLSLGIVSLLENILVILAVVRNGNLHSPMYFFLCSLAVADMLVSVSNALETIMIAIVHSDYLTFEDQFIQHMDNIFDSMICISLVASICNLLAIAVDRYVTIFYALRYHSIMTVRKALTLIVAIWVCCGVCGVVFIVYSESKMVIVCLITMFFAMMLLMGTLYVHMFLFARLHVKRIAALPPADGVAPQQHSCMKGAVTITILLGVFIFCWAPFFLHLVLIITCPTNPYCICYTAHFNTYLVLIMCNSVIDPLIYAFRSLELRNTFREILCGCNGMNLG
Sequence of MC4r (P32245 whole entry): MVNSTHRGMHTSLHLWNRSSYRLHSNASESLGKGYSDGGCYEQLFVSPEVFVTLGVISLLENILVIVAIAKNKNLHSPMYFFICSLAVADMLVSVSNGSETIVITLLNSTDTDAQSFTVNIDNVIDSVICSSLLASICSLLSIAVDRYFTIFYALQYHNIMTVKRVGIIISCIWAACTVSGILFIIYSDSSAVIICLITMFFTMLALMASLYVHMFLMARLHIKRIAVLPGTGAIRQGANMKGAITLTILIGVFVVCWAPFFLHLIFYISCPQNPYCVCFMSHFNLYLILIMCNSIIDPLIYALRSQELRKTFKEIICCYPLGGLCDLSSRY
T1 sequence (Q01727 whole entry): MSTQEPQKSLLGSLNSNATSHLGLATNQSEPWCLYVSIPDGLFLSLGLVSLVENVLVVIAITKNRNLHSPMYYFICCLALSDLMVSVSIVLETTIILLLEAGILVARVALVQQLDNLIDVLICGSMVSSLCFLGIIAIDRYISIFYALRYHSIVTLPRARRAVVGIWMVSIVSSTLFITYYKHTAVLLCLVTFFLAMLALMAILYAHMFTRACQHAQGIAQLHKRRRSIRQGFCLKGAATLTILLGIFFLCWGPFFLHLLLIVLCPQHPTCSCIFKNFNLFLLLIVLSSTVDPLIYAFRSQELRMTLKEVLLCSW
T3 sequence (P33032 whole entry): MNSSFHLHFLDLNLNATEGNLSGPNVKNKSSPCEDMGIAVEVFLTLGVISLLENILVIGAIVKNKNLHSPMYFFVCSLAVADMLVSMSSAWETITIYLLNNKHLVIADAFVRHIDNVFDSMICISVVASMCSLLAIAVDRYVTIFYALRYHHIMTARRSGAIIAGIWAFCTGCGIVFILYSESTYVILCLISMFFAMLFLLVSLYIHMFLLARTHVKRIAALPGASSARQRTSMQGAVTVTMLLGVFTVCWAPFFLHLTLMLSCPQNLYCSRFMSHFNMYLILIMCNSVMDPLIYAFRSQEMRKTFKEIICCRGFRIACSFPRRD

Turning to `CC(=O)N1CCC(N(CC(C)C)N2CCN(C(=O)[C@@H](Cc3ccc(Cl)cc3)NC(=O)C(C)(C)N)CC2)CC1` [Compound 7.1, N-[(1R)-2-[4-[(1-acetyl-4-piperidyl)-isobutyl-amino]piperazin-1-yl]-1-[(4-chlorophenyl)methyl]-2-oxo-ethyl]-2-amino-2-methyl-propanamide], the Ki on mMC1r stood at 93 nM; at hMC3r [1], 1300 nM; at hMC5r, 1200 nM; at MC4r, 5 nM. Further, the EC50 at hMC2r and on hMC3r [2] was more than 1000 nM throughout. For the same compound, the “effect on body weight (in words)” value in the data set on C57BL/6 male DIO mice (3 mg/kg, day 3) was “body weight loss”; in the data set with C57BL/6 male DIO mice (daily treatment at 10 mg/kg and 30 mg/kg, day 1 to 3), “significant body weight loss”. For the same compound, the “effect on feed intake at 24 hours post lights out (in words)” value with C57BL/6 male DIO mice (30 mg/kg, entirety of the study, compared with sham animals) is recorded as “significantly inhibited feed intake”. The Tax in [3] came out at 2 h. Also, in [3] (rat, plasma), the peak level (Cmax) was 780 ng/mL. Besides, the half-life in data set [3] (rat, plasma, read-out: terminal half-life (converted)) was 3.94 h. Further, in data set [4], the “decrease in body weight compared to vehicle controls” value is listed as 4.8%. Moreover, in the data set with C57Bl/6 DIO mice (30 mg/kg two daily administrations via oral gavage), the “effect on body weight vs own vehicle group (in words)” value was “significant body weight loss”. Besides, the “food consumption vs vehicle only (in words)” value with C57Bl/6 DIO mice (6 and 24 hour timepoints, 30 mg/kg twice daily oral gavage) was “significantly decreased”.
